Results as given in PubChem BioAssay AID248 (DTP/NCI, 2004).
Values joined by “and” are separate entries in the source; they are usually repeats but may differ in a detail not shown here. Equal values may be shown once. Inconclusive results and toxic doses are left out. No stated cut-off is given here; in the data, active means T/C of 150% or more; inactive means T/C below 125%.

System: L1210 leukemia ip in BDF1 mice, survival T/C
Assay: NCI In Vivo Anticancer Drug Screen. Data for tumor model L1210 Leukemia (intraperitoneal) in B6D2F1 (BDF1) mice
Settings: higher = longer survival
Outline: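 Ratio derived from survival: compound-dosed mice over vehicle-dosed mice, all bearing a transplantable tumor.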

Measured: T/C

N=C(N)SCc1c2ccccc2c(CSC(=N)N)c2ccccc12
inactive: endpoint: mean survival time, dose: 0.1 mg/kg/injection, schedule: Q07DX002 (ip), vehicle: saline 97 % of control | endpoint: mean survival time, dose: 0.11 mg/kg/injection, schedule: Q01DX Z (ip), vehicle: saline 110 % of control | endpoint: mean survival time, dose: 0.2 mg/kg/injection, schedule: Q01DX Z (ip), vehicle: carboxymethylcellulose (CMC) 113 % of control | endpoint: mean survival time, dose: 0.2 mg/kg/injection, schedule: Q07DX002 (ip), vehicle: saline 103 % of control | endpoint: mean survival time, dose: 0.3 mg/kg/injection, schedule: Q01DX Z (ip), vehicle: carboxymethylcellulose (CMC) 110 % of control | endpoint: mean survival time, dose: 0.3 mg/kg/injection, schedule: Q03HX008 (ip), vehicle: other 113 % of control | endpoint: mean survival time, dose: 0.37 mg/kg/injection, schedule: Q01DX Z (ip), vehicle: carboxymethylcellulose (CMC) 103 % of control | endpoint: mean survival time, dose: 0.39 mg/kg/injection, schedule: Q07DX002 (ip), vehicle: saline 92 % of control | endpoint: mean survival time, dose: 0.62 mg/kg/injection, schedule: Q#A X Z (ip), vehicle: carboxymethylcellulose (CMC) 111 % of control | endpoint: mean survival time, dose: 0.63 mg/kg/injection, schedule: Q01DX Z (im), vehicle: carboxymethylcellulose (CMC) 112 % of control | endpoint: mean survival time, dose: 0.63 mg/kg/injection, schedule: Q01DX Z (sc), vehicle: carboxymethylcellulose (CMC) 106 % of control | endpoint: mean survival time, dose: 0.75 mg/kg/injection, schedule: Q01DX Z (im), vehicle: carboxymethylcellulose (CMC) 106 % of control | endpoint: mean survival time, dose: 0.78 mg/kg/injection, schedule: Q07DX002 (ip), vehicle: saline 110 % of control | endpoint: mean survival time, dose: 1.25 mg/kg/injection, schedule: Q01DX009 (sc), vehicle: carboxymethylcellulose (CMC) 92 % of control | endpoint: mean survival time, dose: 1.25 mg/kg/injection, schedule: Q01DX Z (sc), vehicle: carboxymethylcellulose (CMC) 103 % of control and 112 % of control | endpoint: mean survival time, dose: 1.5 mg/kg/injection, schedule: Q01DX Z (ip), vehicle: saline 112 % of control | endpoint: mean survival time, dose: 2.5 mg/kg/injection, schedule: Q01DX009 (sc), vehicle: carboxymethylcellulose (CMC) 92 % of control | endpoint: mean survival time, dose: 2.5 mg/kg/injection, schedule: Q01DX Z (sc), vehicle: carboxymethylcellulose (CMC) 106 % of control and 113 % of control | endpoint: mean survival time, dose: 3.12 mg/kg/injection, schedule: Q01DX Z (im), vehicle: carboxymethylcellulose (CMC) 112 % of control | endpoint: mean survival time, dose: 3.12 mg/kg/injection, schedule: Q01DX Z (ip), vehicle: carboxymethylcellulose (CMC) 112 % of control | endpoint: mean survival time, dose: 5.0 mg/kg/injection, schedule: Q01DX006 (iv), vehicle: carboxymethylcellulose (CMC) 108 % of control | endpoint: mean survival time, dose: 5.0 mg/kg/injection, schedule: Q01DX009 (sc), vehicle: carboxymethylcellulose (CMC) 92 % of control | endpoint: mean survival time, dose: 5.0 mg/kg/injection, schedule: Q01DX Z (im), vehicle: carboxymethylcellulose (CMC) 113 % of control | endpoint: mean survival time, dose: 10.0 mg/kg/injection, schedule: Q01DX006 (iv), vehicle: carboxymethylcellulose (CMC) 96 % of control and 111 % of control | endpoint: mean survival time, dose: 10.0 mg/kg/injection, schedule: Q01DX009 (sc), vehicle: carboxymethylcellulose (CMC) 98 % of control | endpoint: mean survival time, dose: 10.0 mg/kg/injection, schedule: Q01DX Z (oral), vehicle: carboxymethylcellulose (CMC) 108 % of control | endpoint: mean survival time, dose: 10.0 mg/kg/injection, schedule: Q01DX Z (sc), vehicle: carboxymethylcellulose (CMC) 108 % of control | endpoint: mean survival time, dose: 12.5 mg/kg/injection, schedule: Q01DX Z (im), vehicle: carboxymethylcellulose (CMC) 110 % of control | endpoint: mean survival time, dose: 12.5 mg/kg/injection, schedule: Q03HX008 (ip), vehicle: carboxymethylcellulose (CMC) 107 % of control | endpoint: mean survival time, dose: 17.0 mg/kg/injection, schedule: Q01DX001 (ip), vehicle: carboxymethylcellulose (CMC) 111 % of control | endpoint: mean survival time, dose: 20.0 mg/kg/injection, schedule: Q01DX001 (sc), vehicle: carboxymethylcellulose (CMC) 98 % of control | endpoint: mean survival time, dose: 20.0 mg/kg/injection, schedule: Q01DX006 (iv), vehicle: carboxymethylcellulose (CMC) 112 % of control | endpoint: mean survival time, dose: 20.0 mg/kg/injection, schedule: Q01DX009 (sc), vehicle: carboxymethylcellulose (CMC) 95 % of control and 100 % of control | endpoint: mean survival time, dose: 20.0 mg/kg/injection, schedule: Q01DX Z (im), vehicle: carboxymethylcellulose (CMC) 106 % of control | endpoint: mean survival time, dose: 20.0 mg/kg/injection, schedule: Q01DX Z (oral), vehicle: carboxymethylcellulose (CMC) 111 % of control | endpoint: mean survival time, dose: 20.0 mg/kg/injection, schedule: Q01DX Z (sc), vehicle: carboxymethylcellulose (CMC) 106 % of control and 109 % of control | endpoint: mean survival time, dose: 25.0 mg/kg/injection, schedule: Q01DX017 (ip), vehicle: carboxymethylcellulose (CMC) 102 % of control | endpoint: mean survival time, dose: 25.0 mg/kg/injection, schedule: Q03HX040 (ip), vehicle: carboxymethylcellulose (CMC) 100 % of control | endpoint: mean survival time, dose: 30.0 mg/kg/injection, schedule: Q01DX009 (sc), vehicle: carboxymethylcellulose (CMC) 100 % of control | endpoint: mean survival time, dose: 32.0 mg/kg/injection, schedule: Q03HX024 (ip), vehicle: carboxymethylcellulose (CMC) 97 % of control | endpoint: mean survival time, dose: 32.0 mg/kg/injection, schedule: Q03HX024 (ip), vehicle: other 101 % of control | endpoint: mean survival time, dose: 40.0 mg/kg/injection, schedule: Q01DX001 (sc), vehicle: carboxymethylcellulose (CMC) 104 % of control | endpoint: mean survival time, dose: 41.0 mg/kg/injection, schedule: Q01DX Z (ip), vehicle: saline 105 % of control | endpoint: mean survival time, dose: 44.0 mg/kg/injection, schedule: Q01DX009 (sc), vehicle: carboxymethylcellulose (CMC) 101 % of control | endpoint: mean survival time, dose: 48.0 mg/kg/injection, schedule: Q01DX Z (ip), vehicle: carboxymethylcellulose (CMC) 101 % of control | endpoint: mean survival time, dose: 50.0 mg/kg/injection, schedule: Q03HX008 (ip), vehicle: carboxymethylcellulose (CMC) 113 % of control | endpoint: mean survival time, dose: 50.0 mg/kg/injection, schedule: Q03HX016 (ip), vehicle: carboxymethylcellulose (CMC) 94 % of control | endpoint: mean survival time, dose: 50.0 mg/kg/injection, schedule: Q03HX024 (ip), vehicle: carboxymethylcellulose (CMC) 102 % of control | endpoint: mean survival time, dose: 61.5 mg/kg/injection, schedule: Q01DX Z (ip), vehicle: saline 92 % of control | endpoint: mean survival time, dose: 66.0 mg/kg/injection, schedule: Q01DX009 (sc), vehicle: carboxymethylcellulose (CMC) 102 % of control | endpoint: mean survival time, dose: 80.0 mg/kg/injection, schedule: Q01DX001 (sc), vehicle: carboxymethylcellulose (CMC) 103 % of control | endpoint: mean survival time, dose: 80.0 mg/kg/injection, schedule: Q01DX Z (oral), vehicle: carboxymethylcellulose (CMC) 105 % of control and 106 % of control | endpoint: mean survival time, dose: 100.0 mg/kg/injection, schedule: Q01DX009 (ip), vehicle: saline 92 % of control | endpoint: mean survival time, dose: 100.0 mg/kg/injection, schedule: Q01DX009 (sc), vehicle: carboxymethylcellulose (CMC) 107 % of control | endpoint: mean survival time, dose: 100.0 mg/kg/injection, schedule: Q06HX004 (ip), vehicle: carboxymethylcellulose (CMC) 93 % of control | endpoint: mean survival time, dose: 100.0 mg/kg/injection, schedule: Q08DX003 (ip), vehicle: carboxymethylcellulose (CMC) 108 % of control | endpoint: mean survival time, dose: 160.0 mg/kg/injection, schedule: Q01DX001 (sc), vehicle: carboxymethylcellulose (CMC) 103 % of control | endpoint: mean survival time, dose: 200.0 mg/kg/injection, schedule: Q01DX009 (ip), vehicle: carboxymethylcellulose (CMC) 113 % of control | endpoint: mean survival time, dose: 200.0 mg/kg/injection, schedule: Q01DX017 (ip), vehicle: carboxymethylcellulose (CMC) 105 % of control | endpoint: mean survival time, dose: 200.0 mg/kg/injection, schedule: Q01DX Z (im), vehicle: carboxymethylcellulose (CMC) 112 % of control | endpoint: mean survival time, dose: 200.0 mg/kg/injection, schedule: Q08DX002 (ip), vehicle: carboxymethylcellulose (CMC) 113 % of control | endpoint: mean survival time, dose: 200.0 mg/kg/injection, schedule: Q08DX003 (ip), vehicle: carboxymethylcellulose (CMC) 104 % of control | endpoint: mean survival time, dose: 200.0 mg/kg/injection, schedule: Q#A X002 (ip), vehicle: saline 111 % of control | endpoint: mean survival time, dose: 266.0 mg/kg/injection, schedule: Q01DX001 (sc), vehicle: carboxymethylcellulose (CMC) 103 % of control | endpoint: mean survival time, dose: 300.0 mg/kg/injection, schedule: Q03DX Z (ip), vehicle: saline 113 % of control | endpoint: mean survival time, dose: 320.0 mg/kg/injection, schedule: Q01DX001 (sc), vehicle: carboxymethylcellulose (CMC) 103 % of control | endpoint: mean survival time, dose: 320.0 mg/kg/injection, schedule: Q01DX Z (oral), vehicle: carboxymethylcellulose (CMC) 112 % of control | endpoint: mean survival time, dose: 400.0 mg/kg/injection, schedule: Q01DX001 (oral), vehicle: carboxymethylcellulose (CMC) 106 % of control | endpoint: mean survival time, dose: 400.0 mg/kg/injection, schedule: Q01DX001 (sc), vehicle: carboxymethylcellulose (CMC) 102 % of control | endpoint: mean survival time, dose: 400.0 mg/kg/injection, schedule: Q04DX005 (ip), vehicle: carboxymethylcellulose (CMC) 97 % of control | endpoint: mean survival time, dose: 400.0 mg/kg/injection, schedule: Q07DX Z (ip), vehicle: saline 102 % of control | endpoint: mean survival time, dose: 400.0 mg/kg/injection, schedule: Q08DX002 (ip), vehicle: saline 97 % of control | endpoint: mean survival time, dose: 600.0 mg/kg/injection, schedule: Q01DX001 (sc), vehicle: carboxymethylcellulose (CMC) 98 % of control | endpoint: mean survival time, dose: 640.0 mg/kg/injection, schedule: Q01DX Z (oral), vehicle: carboxymethylcellulose (CMC) 112 % of control | endpoint: mean survival time, dose: 800.0 mg/kg/injection, schedule: Q01DX001 (oral), vehicle: carboxymethylcellulose (CMC) 105 % of control | endpoint: mean survival time, dose: 800.0 mg/kg/injection, schedule: Q08DX002 (ip), vehicle: carboxymethylcellulose (CMC) 109 % of control and 111 % of control | endpoint: mean survival time, dose: 800.0 mg/kg/injection, schedule: Q08DX003 (ip), vehicle: carboxymethylcellulose (CMC) 107 % of control | endpoint: mean survival time, dose: 900.0 mg/kg/injection, schedule: Q01DX001 (sc), vehicle: carboxymethylcellulose (CMC) 112 % of control | endpoint: mean survival time, dose: 1200.0 mg/kg/injection, schedule: Q01DX001 (oral), vehicle: carboxymethylcellulose (CMC) 97 % of control | endpoint: mean survival time, dose: 1280.0 mg/kg/injection, schedule: Q01DX Z (oral), vehicle: carboxymethylcellulose (CMC) 101 % of control | endpoint: mean survival time, dose: 1340.0 mg/kg/injection, schedule: Q01DX001 (oral), vehicle: carboxymethylcellulose (CMC) 107 % of control | endpoint: mean survival time, dose: 1600.0 mg/kg/injection, schedule: Q01DX001 (oral), vehicle: carboxymethylcellulose (CMC) 100 % of control | endpoint: mean survival time, dose: 2000.0 mg/kg/injection, schedule: Q01DX001 (oral), vehicle: carboxymethylcellulose (CMC) 112 % of control | endpoint: mean survival time, dose: 3000.0 mg/kg/injection, schedule: Q01DX001 (oral), vehicle: carboxymethylcellulose (CMC) 101 % of control | endpoint: median survival time, dose: 50.0 mg/kg/injection, schedule: Q04DX003 (ip), vehicle: steriod suspending solution 111 % of control | endpoint: median survival time, dose: 100.0 mg/kg/injection, schedule: Q01DX009 (ip), vehicle: steriod suspending solution 94 % of control | endpoint: median survival time, dose: 100.0 mg/kg/injection, schedule: Q04DX003 (ip), vehicle: steriod suspending solution 111 % of control | endpoint: median survival time, dose: 125.0 mg/kg/injection, schedule: Q01DX001 (sc), vehicle: steriod suspending solution 100 % of control | endpoint: median survival time, dose: 250.0 mg/kg/injection, schedule: Q01DX001 (sc), vehicle: steriod suspending solution 111 % of control | endpoint: median survival time, dose: 400.0 mg/kg/injection, schedule: Q04DX003 (sc), vehicle: steriod suspending solution 111 % of control | endpoint: median survival time, dose: 500.0 mg/kg/injection, schedule: Q01DX001 (sc), vehicle: steriod suspending solution 100 % of control | endpoint: median survival time, dose: 800.0 mg/kg/injection, schedule: Q04DX003 (sc), vehicle: steriod suspending solution 111 % of control | endpoint: median survival time, dose: 1000.0 mg/kg/injection, schedule: Q01DX001 (sc), vehicle: steriod suspending solution 105 % of control
